Experimental data published in patent US20040097377A1, “Pesticidal spinosyn derivates” (priority 2003, published 2004).

Legend:
[1] = tested on: Tobacco Budworm (Heliothis virescens); assay: Tobacco budworm feeding bioassay (egg and larval stage, 96-well agar diet plate, percent mortality); format: in vivo; settings: average of three replicates
Experimental: (§1) Tobacco Budworm (Heliothis virescens) and Beet Armyworm (Spodoptera littoralis) Feeding Bioassay
(§2) To compare insecticidal activities of the test compounds against egg and larval stage Heliothis virescens or Spodoptera littoralis, 50 ul of a 1:1 acetone:water solution was added to each sample and then solublized for one-hour using an orbital shaker. Each of the resulting sample solutions (50, 120, or 250 ppm) was then applied to a well in a 96-well microtiter plate, each well containing an artificial agar-based lepidoptera diet (modified Shorey diet, Southland Products, Lake Village, Ariz.). Each sample was run in triplicate. Plates were allowed to dry for about 4 hours, covered and held for infestation the next day. Each well of the treated plate was infested with 3-5 eggs (0-2 days old) of either H. virescens or S. littoralis. Plates were then covered with cotton batting and sealed with microplate lid. The treated plates were held inverted in an incubator (80+% rh) for six to seven days. Following the incubation period, the plates were graded for percent mortality using a binocular microscope. Data for each sample was reported as the average percent mortality of the three replicates.

[2] = tested on: Beet Armyworm (Spodoptera littoralis); assay: Beet armyworm feeding bioassay (egg and larval stage, 96-well agar diet plate, percent mortality); format: in vivo; settings: average of three replicates
Experimental: as §1, §2

Compound | Tobacco Budworm Diet (6 day) Mortality (%) ([1]; Rate 50 ppm) | Beet Armyworm Diet (6 day) Mortality (%) ([2]; Rate 50 ppm) | Tobacco Budworm Diet (6 day) Mortality (%) ([1]; Rate 120 ppm) | Beet Armyworm Diet (6 day) Mortality (%) ([2]; Rate 120 ppm)
CCC=CC1CCCC(OC2CCC(N(C)C)C(C)O2)C(C)C(=O)C2=CC3C(C=CC4CC(OC5OC(C)C(OC)C(OC)C5OC)CC43)C2CC(=O)O1 (stereo not shown) [Compound 1, for-rham-I, reference compound] | 100 | 100 |  | 
CCC=CC1CCCC(OC2CCC(N(C)C)C(C)O2)C(C)C(=O)C2=CC3C(C=CC4C(O)C(OC5OC(C)C(OC)C(O)C5OC)CC43)C2CC(=O)O1 (stereo not shown) [Compound 41, for-(3′-O-desmethyl-rham) III] | 100 | 100 |  | 
CCC=CC1CCCC(OC2CCC(N(C)C)C(C)O2)C(C)C(=O)C2=CC3C(C=CC4CC(OC5OC(C)C(OC)C(OC)C5O)CC43)C2CC(=O)O1 (stereo not shown) [Compound 5, for-(2′-O-desmethylrham)-I] | 100 | 100 |  | 
CCC=CC1CCCC(OC2CCC(N(C)C)C(C)O2)C(C)C(=O)C2=CC3C(C=CC4CC(OC5OC(C)C(O)C(OC)C5OC)CC43)C2CC(=O)O1 (stereo not shown) [Compound 32, for-(4′-O-desmethyl-rham)-I] | 100 | 100 |  | 
CCC=CC1CCCC(OC2CCC(N(C)C)C(C)O2)C(C)C(=O)C2=CC3C(C=CC4CC(OC5OC(C)C(O)C(O)C5O)CC43)C2CC(=O)O1 (stereo not shown) [Compound 33, for-(2′,3′,4′-tri-O-desmethyl-rham)-I] | 100 | 100 |  | 
CC=CC1CCCC(OC2CCC(N(C)C)C(C)O2)C(C)C(=O)C2=CC3C(C=CC4CC(OC5OC(C)C(O)C(O)C5OC)CC43)C2CC(=O)O1 (stereo not shown) [Compound 43, 24-desmethyl-for-(3′,4′-di-O-desmethyl-rham)-I] | 33 | 80 |  | 
CCC=CC1CCCC(OC2CCC(N(C)C)C(C)O2)C(C)C(=O)C2=CC3C(C=CC4CC(OC5OC(C)C(OC)C(O)C5OC)CC43)C2CC(=O)O1 (stereo not shown) [Compound 6, for-(3′-O-desmethylrham)-I] | 100 | 100 |  | 
COC1C(C)OC(OC2CC3C=CC4C5CC(=O)OC(C=CC(C)O)CCCC(OC6CCC(N(C)C)C(C)O6)C(C)C(=O)C5=CC4C3C2)C(OC)C1O (stereo not shown) [Compound 141, 24-hydroxy-for-(3′-O-desmethyl-rham)-I] |  |  | 100 | 67
CCC=CC1CCCC(OC2CCC(N(C)C)C(C)O2)C(C)C(=O)C2=CC3C(C=CC4C(O)C(OC5OC(C)C(O)C(OC)C5OC)CC43)C2CC(=O)O1 (stereo not shown) [Compound 34, for-(4′-O-desmethyl-rham)-III] | 100 | 100 |  | 
for-(3′,4′-di-O-desmethyl-rham)-IV [Compound 163] |  |  | 100 | 100
CCC=CC1CCCC(OC2CCC(N(C)C)C(C)O2)C(C)C(=O)C2=CC3C(C=CC4CC(OC5OC(C)C(O)C(O)C5OC)CC43)C2CC(=O)O1 (stereo not shown) [Compound 37] | 100 | 100 |  | 
CCC=CC1CCCC(OC2CCC(NC)C(C)O2)C(C)C(=O)C2=CC3C(C=CC4CC(OC5OC(C)C(OC)C(O)C5OC)CC43)C2CC(=O)O1 (stereo not shown) [Compound 137, (4″-N-desmethyl-for)-(3′-O-desmethyl-rham)-I] |  |  | 100 | 100
for-(3′,4′-di-O-desmethyl-rham)-II [Compound 44] | 100 | 100 |  | 
CCC=CC1CCCC(OC2CCC(N(C)C)C(C)O2)C(C)C(=O)C2=CC3C(C=CC4C(O)C(OC5OC(C)C(O)C(O)C5OC)CC43)C2CC(=O)O1 (stereo not shown) [Compound 40, for-(3′,4′-di-O-desmethyl-rham) III] | 100 | 93 |  | 
